Laboratory results as given in patent US20220220565A1, “METHODS AND COMPOSITIONS FOR TREATING MELANOMA” (INSERM (INSTITUT NATIONAL DE LA SANTÉ ET DE LA RECHERCHE …, priority 2019, published 2022).
Entries after “also recorded” stand apart in the source; their conditions may differ.

Tests used:
[1] = system: 1205Lu cells; assay: Matrigel invasion assay; assay type: cell-based, human; conditions: siPTX3-transfected cells, rhPTX3 100 ng.ml-1
Method: (§1) Serum-stimulated chemotaxis, invasion and transendothelial migration were monitored using modified Boyden chambers (8 μm pores, Sigma) as described before. For invasion assays, the upper side of the filter was coated with 0.5 mg.ml-1 matrigel (Corning, N.Y., USA). Migrated cells were stained with crystal violet and counted (four fields randomly per well). For transendothelial migration, 105 HUVECs were grown in the upper chamber of gelatin-coated
(§2) Transwell inserts and treated with human TNFa (10 ng.ml-1) for 16 h. Melanoma cells were allowed to migrate for 6 h or 16 h and migrated cells were visualized and quantified as before. Pictures of five random fields were captured for quantification using NIH ImageJ analysis software. For scratch assays, melanoma cells were grown approximately 80% confluence in 6-well plates. Wounds were generated using a sterile 200 μl pipette tip across each well. Following treatment with rhPTX3 or CM, pictures of four random fields were captured using an imaging station and the number of migrated cells in wounded area was counted with NIH ImageJ analysis software.

[2] = system: A375 cells; assay: Serum-stimulated migration (modified Boyden chamber / Transwell); assay type: cell-based, human; conditions: siPTX3-transfected cells, rhPTX3 100 ng.ml-1
Method: as §1, §2

[3] = system: 1205Lu cells; assay: as above; assay type: cell-based, human
Method: as §1, §2

[4] = system: 1205Lu cells; assay: Transendothelial migration on monolayers of TNFα-activated HUVECs; assay type: cell-based, human; conditions: rhPTX3 100 ng.ml-1, 6 h
Method: as §1, §2

[5] = system: SKMel28 cells; assay: In vitro scratch assay; assay type: cell-based, human; conditions: rhPTX3 added to wounded monolayers of PTX3-negative cells
Method: as §2

[6] = system: PTX3; assay: PTX3 expression and secretion (immunoblot of lysates and CM); assay type: cell-based, human; conditions: 1205Lu cells treated with IKK inhibitor
Method: (§3) Immunohistochemistry and immunoblot analysis were performed as described before. IHC analysis was performed on melanoma tissue microarrays (US Biomax, MD, USA) using PTX3 antibody (HPA069320, Sigma-Aldrich; 1:50). For immunoblotting, the following antibodies were used at 1:1,000: SPARC (Bio-Techne), PTX3 (Enzo Life Sciences, Switzerland), HSP90, HSP60, TLR4, Fibronectin, ERK2 (Santa Cruz Biotechnology), MITF (Thermo Fisher Scientific), TWIST1 (Abcam, UK), SNAIL, phospho-IKKα/β (Ser176/180), NF-κB p65, phospho-NF-κB p65 (Ser536), I[…]B[…] (L35A5), I[…]B[…] (Ser32/36), IKKα, IKKβ, MYD88, phospho-AKT (Ser473), phospho-ERK1/2 (Thr202/Tyr204) (Cell Signaling Technology, MA, USA).

[7] = system: PTX3-expressing 501Mel cells; assay: PTX3-mediated cell migration; assay type: cell-based, human; conditions: data not shown
Method: as §1

[8] = system: 501Mel control cells; assay: Cell migration of control cells; assay type: cell-based, human; conditions: IKK inhibition or TWIST1 depletion
Method: as §1

[9] = system: melanoma cells; assay: Cell migration upon IKK targeting; assay type: cell-based, human; conditions: IKK targeting in melanoma cells
Method: as §1

[10] = system: EMT factors TWIST1 and SNAIL; assay: EMT factor expression (immunoblot); assay type: cell-based, human; conditions: IKK targeting in melanoma cells
Method: as §3

[11] = system: 1205Lu-Luc+ cells; assay: Experimental lung metastasis (long-term lung colonization) by bioluminescent melanoma cells; assay type: in vivo, nude mice
Method: All mouse experiments were carried out in accordance with the Institutional Animal Care and local ethics committees. For experimental lung metastasis studies, 5-week-old female nude mice (Harlan, IN, USA) were intravenously injected with 1205Lu Luc+cells (1×106) that were transduced with a non targeting shRNA lentivirus (shCTRL) or a PTX3 targeting shRNA lentivirus (shPTX3-5). Images were acquired using a Photon Imager (Biospace Lab, France) on mice injected i.p with 50mg.kg-1 D-luciferin (PerkinElmer, MA, USA). Lung metastasis was monitored and quantified using BLI [12]. In a second set of experiments, short-term lung colonization assays were performed with Cell Tracker Orange-stained 501Mel cells stably expressing PTX3 or not. Cells were intravenously injected in 5-week-old female nude mice that were sacrificed either 30 min or 24 h later. Lungs were perfused with PBS, fixed in 4% paraformaldehyde, OCT-embedded, cryosectioned, immunostained and imaged using a confocal microscope as described.

[12] = system: 1205Lu-Luc+ cells; assay: In vitro cell migration of shRNA-transduced cells (Boyden chamber); assay type: cell-based, human; conditions: among shPTX3-1 to 5; data not shown
Method: Negative control, PTX3 siRNA duplexes were designed by Thermo Fisher Scientific. MITF (sc-35934), MYD88 (sc-35986) and TWIST1 (sc-38604) siRNAs were from Santa Cruz Biotechnology (TX, USA). IKKα, IKKβ, and TLR4 siRNAs were from Dharmacon (CO, USA). Transfection of siRNA was carried out using Lipofectamine RNAiMAX (Thermo Fisher Scientific), at a final concentration of 25 or 50 nM. Unless stated otherwise, cells were assayed 3 days post transfection. Lentiviral vectors for stable knockdown of PTX3 (NM_002852) in melanoma cells were TRC1.5-pLKO.1-puro vectors containing a s (shPTX3-1 to 5) (Genomic center, University of Minnesota, USA). Lentiviral, packaging (psPAX2) and enveloppe (pMD2.0G) vectors were transfected into HEK293T cells and virus-containing supernatant fractions were harvested after 72 h. The supernatant fractions were filtered and used to infect bioluminescent 1205Lu cells (1205Lu-Luc+) that were described before. Transduced cells were selected with 2 μg/ml puromycin for 3 weeks. The efficiency of PTX3 knockdown was assessed by immunoblotting and analysis of in vitro cell migration using modified Boyden chambers. […]
Serum-stimulated chemotaxis, invasion and transendothelial migration were monitored using modified Boyden chambers (8 μm pores, Sigma) as described before. […] Migrated cells were stained with crystal violet and counted (four fields randomly per well). […]

Compound: recombinant PTX3: recombinant human PTX3 (Bio-Techne)
- rescue of invasiveness of PTX3-depleted cells [1]: restored the impaired invasiveness
- rescue of migration of PTX3-depleted cells [2]: rescued the migratory ability
- rescue of migration by recombinant PTX3 in cells treated with a MYD88 inhibitory peptide ([3]; data not shown): failed to rescue migration
- rescue of migration of PTX3-depleted cells ([3]; siPTX3-transfected cells, rhPTX3 100 ng.ml-1): rescued the migratory ability; also recorded: restored the migration
- rescue of migration of TLR4 silenced cells ([3]; siTLR4-transfected cells stimulated with rhPTX3 for 4 h): ineffective to restore the migration
- rescue of transendothelial migration of PTX3-depleted cells [4]: rescued
- migration in wound area [5]: enhanced the migration

Compound: Cc1ccc2nc(NCCN)c3ncc(C)n3c2c1 [BMS345541]
- autocrine production of PTX3 [6]: impaired the autocrine production of PTX3
- PTX3-mediated cell migration [7]: reduction of PTX3-mediated cell migration
- migration of control cells [8]: also reduced
- cell migration [9]: reduced
- EMT factors levels [10]: reduced EMT factors levels

Compound: shPTX3-5: lentiviral shRNA for stable knockdown of PTX3 (TRC1.5-pLKO.1-puro vector), SEQ ID NO: 1 (DNA CCGGGAGGAGCTCAGTATGTTTCATCTCGAGATGAAACATACTGAGCTCCTCTTTTTTG)
- arrest of injected cells into the lungs (BLI) ([11]; 15 min after tail vein injection, vs shCTRL): equally arrested into the lungs
- lung colonization (BLI) ([11]; during 15 days after tail vein injection, vs shCTRL): dramatic reduction in lung colonization
- reduction in experimental lung metastasis (ex vivo BLI) ([11]; endpoint of the assay, stable PTX3 knockdown vs control cells): 6 fold
- reduction of cell migration compared to shCtrl [12]: most efficient in reducing cell migration
